In paper PMC5013068, “Fragment-Based Whole Cell Screen Delivers Hits against M. tuberculosis and Non-tuberculous Mycobacteria” (Frontiers in Microbiology, 2016):
In brackets after ≈: the same amount, converted by molar mass.

Legend:
[1] = system: Mycobacterium tuberculosis H37Rv (ATCC 27294); experiment: Growth inhibition dose response against M. tuberculosis; type: cell-based; conditions: 7H9 broth, OD600, twofold serial dilution from 500 μM
[2] = system: M. bovis BCG (ATCC 35734); experiment: microbe, parasite or virus in culture; type: cell-based; conditions: for MIC50: Mycobacterium tuberculosis variant bovis BCG, 120 h, read-out: M. bovis BCG MIC50, 7H9 broth, 5 days, OD600
[3] = system: M. abscessus Bamboo (smooth morphotype); experiment: Growth inhibition dose response against M. abscessus; type: cell-based; conditions: Mycobacteroides abscessus, 72 h; 3 days, max 500 μM
M. avium 11 = experiment: Growth inhibition dose response against M. avium; type: cell-based; conditions: Mycobacterium avium, 11, 120 h; 5 days, max 500 μM
[4] = system: Staphylococcus aureus (ATCC 43300, MRSA); experiment: microbe, parasite or virus in culture; type: cell-based; conditions: 18 h, read-out: S. aureus Growth Inhibition Spectrum (MIC80)
[5] = system: Escherichia coli (ATCC 25922); experiment: Antibacterial growth inhibition, E. coli; type: cell-based; conditions: ATCC25922, twofold serial dilution, max 100 μM, 18 h, read-out: E. coli Growth Inhibition Spectrum (MIC80)
[6] = system: Klebsiella pneumoniae (ATCC 700603, MDR); experiment: microbe, parasite or virus in culture; type: cell-based; conditions: ATCC700603, 18 h, read-out: K. pneumoniae Growth Inhibition Spectrum (MIC80)
[7] = system: Acinetobacter baumannii (ATCC 19606); experiment: Antibacterial growth inhibition, A. baumannii; type: cell-based; conditions: ATCC19606, twofold serial dilution, max 100 μM, 18 h, read-out: A. baumannii Growth Inhibition Spectrum (MIC80)
[8] = system: Pseudomonas aeruginosa (ATCC 27853); experiment: Antibacterial growth inhibition, P. aeruginosa; type: cell-based; conditions: ATCC27853, twofold serial dilution, max 100 μM, 18 h, read-out: P. aeruginosa Growth Inhibition Spectrum (MIC80)
[9] = system: Candida albicans (ATCC 90028); experiment: Antifungal growth inhibition, C. albicans; type: cell-based; conditions: ATCC90028, twofold serial dilution, max 100 μM, 24 h, read-out: C. albicans Growth Inhibition Spectrum (MIC80)
[10] = system: Cryptococcus neoformans (ATCC 208821); experiment: Antifungal growth inhibition, C. neoformans; type: cell-based; conditions: ATCC208821, twofold serial dilution, max 100 μM, 24 h, resazurin, read-out: C. neoformans Growth Inhibition Spectrum (MIC80)
[11] = MTS cytotoxicity assay, A549; conditions: human, A549 cells (ATCC CCL-185)
[12] = system: A549 (ATCC CCL-185) cells; experiment: MTS cytotoxicity assay, A549; conditions: selectivity index vs M. tuberculosis MIC50
[13] = MTS cytotoxicity assay, HepG2; conditions: human, HepG2 cells (ATCC HB.8065)
[14] = system: HepG2 (ATCC HB.8065) cells; experiment: MTS cytotoxicity assay, HepG2; conditions: selectivity index vs M. tuberculosis MIC50
Red blood cells = experiment: Hemolytic activity (red blood cell lysis assay); conditions: for RBC SI: selectivity index vs M. tuberculosis MIC50; for RBC HC50: hemolysis, 24 h in PBS, unit not given, same scale as MIC50, i not defined

Structure (SMILES): CCNc1nc(C)nc2sc(CC)cc12 [Fragment 1]
- MIC50 [1]: 40 µM (≈ 8.85 µg/mL)
- M. bovis BCG MIC50 ([2]; 7H9 broth, 5 days, OD600): 4.5 µM
- MIC50 [2]: 5 µM (≈ 1.11 µg/mL)
- MIC50 [3]: > 500 µM
- MIC50 (M. avium 11): > 500 µM
- MIC80 [4]: > 100 µM
- MIC80 [5]: > 100 µM
- MIC80 [6]: > 100 µM
- MIC80 [7]: > 100 µM
- MIC80 [8]: > 100 µM
- MIC80 [9]: > 100 µM
- MIC80 [10]: > 100 µM
- CC50 [11]: > 2500 µM
- A549 SI [12]: >24
- CC50 [13]: > 2500 µM
- HepG2 SI [14]: >24
- RBC SI (Red blood cells): >24

Structure (SMILES): Clc1ccc(Oc2cnns2)c2ncccc12 [Fragment 2]
- MIC50 [1]: 43 µM (≈ 11.3 µg/mL)
- MIC50 [2]: 56 µM (≈ 14.8 µg/mL)
- MIC50 [3]: > 500 µM
- MIC50 (M. avium 11): 130 µM (≈ 34.3 µg/mL)
- MIC80 [4]: > 100 µM
- MIC80 [5]: > 100 µM
- MIC80 [6]: > 100 µM
- MIC80 [7]: > 100 µM
- MIC80 [8]: > 100 µM
- MIC80 [9]: > 100 µM
- MIC80 [10]: > 100 µM
- CC50 [11]: > 2500 µM
- A549 SI [12]: >7
- CC50 [13]: 200 µM
- RBC HC50 (Red blood cells): 250

Structure (SMILES): COc1cccc2sc(S(C)(=O)=O)nc12 [Fragment 3]
- MIC50 [1]: 52 µM (≈ 12.7 µg/mL)
- MIC50 [2]: 20 µM (≈ 4.87 µg/mL)
- MIC50 [3]: > 500 µM
- MIC50 (M. avium 11): > 500 µM
- MIC80 [4]: > 100 µM
- MIC80 [5]: > 100 µM
- MIC80 [6]: > 100 µM
- MIC80 [7]: > 100 µM
- MIC80 [8]: > 100 µM
- MIC80 [9]: > 100 µM
- MIC80 [10]: > 100 µM
- RBC SI (Red blood cells): >13

Structure (SMILES): Cc1c(C)n(CC(O)CNC2CCCC2)c2c(Cl)cccc12 (centres unmarked) [Fragment 4]
- MIC50 [1]: 55 µM (≈ 17.6 µg/mL)
- MIC50 [2]: 56 µM (≈ 18 µg/mL)
- MIC50 [3]: 125 µM (≈ 40.1 µg/mL)
- MIC50 (M. avium 11): 53 µM (≈ 17 µg/mL)
- MIC80 [4]: > 100 µM
- MIC80 [5]: > 100 µM
- MIC80 [6]: > 100 µM
- MIC80 [7]: > 100 µM
- MIC80 [8]: > 100 µM
- MIC80 [9]: > 100 µM
- MIC80 [10]: > 100 µM
- CC50 [11]: 60 µM
- CC50 [13]: 45 µM
- RBC HC50 (Red blood cells): 125

Structure (SMILES): O=C(c1cc2cc(F)ccc2s1)N1CCC1 [Fragment 5]
- MIC50 [1]: 60 µM (≈ 14.1 µg/mL)
- MIC50 [2]: 68 µM (≈ 16 µg/mL)
- MIC50 [3]: > 500 µM
- MIC50 (M. avium 11): > 500 µM
- MIC80 [4]: > 100 µM
- MIC80 [5]: > 100 µM
- MIC80 [6]: > 100 µM
- MIC80 [7]: > 100 µM
- MIC80 [8]: > 100 µM
- MIC80 [9]: > 100 µM
- MIC80 [10]: > 100 µM
- CC50 [11]: > 2500 µM
- A549 SI [12]: >41
- CC50 [13]: > 2500 µM
- HepG2 SI [14]: >41
- RBC SI (Red blood cells): >41

Structure (SMILES): N#CSC1C=CS(=O)(=O)C1 (centres unmarked) [Fragment 6]
- MIC50 [1]: 92 µM (≈ 16.1 µg/mL)
- MIC50 [2]: 53 µM (≈ 9.29 µg/mL)
- MIC50 [3]: > 500 µM
- MIC50 (M. avium 11): > 500 µM
- MIC80 [4]: 100 µM (≈ 17.5 µg/mL)
- MIC80 [5]: > 100 µM
- MIC80 [6]: > 100 µM
- MIC80 [7]: 100 µM (≈ 17.5 µg/mL)
- MIC80 [8]: > 100 µM
- MIC80 [9]: 100 µM (≈ 17.5 µg/mL)
- MIC80 [10]: > 100 µM
- CC50 [11]: 1000 µM
- A549 SI [12]: 11
- CC50 [13]: 75 µM
- RBC HC50 (Red blood cells): 2200
- RBC SI (Red blood cells): 24

Structure (SMILES): COn1c(-c2ccc(Cl)cc2)nc2ncccc21 [Fragment 7]
- MIC50 [1]: 104 µM (≈ 27 µg/mL)
- MIC50 [2]: 19 µM (≈ 4.93 µg/mL)
- MIC50 [3]: 150 µM (≈ 39 µg/mL)
- MIC50 (M. avium 11): 145 µM (≈ 37.7 µg/mL)
- MIC80 [4]: > 100 µM
- MIC80 [5]: > 100 µM
- MIC80 [6]: > 100 µM
- MIC80 [7]: > 100 µM
- MIC80 [8]: > 100 µM
- MIC80 [9]: > 100 µM
- MIC80 [10]: > 100 µM
- CC50 [11]: 1800 µM
- A549 SI [12]: 17
- CC50 [13]: 850 µM
- HepG2 SI [14]: 8
- RBC SI (Red blood cells): >23

Structure (SMILES): CC1CC(N)=NN1c1ccc(Cl)cn1 (centres unmarked) [Fragment 8]
- MIC50 [1]: 123 µM (≈ 25.9 µg/mL)
- MIC50 [2]: 13 µM (≈ 2.74 µg/mL)
- MIC50 [3]: > 500 µM
- MIC50 (M. avium 11): 275 µM (≈ 57.9 µg/mL)
- MIC80 [4]: > 100 µM
- MIC80 [5]: 100 µM (≈ 21.1 µg/mL)
- MIC80 [6]: > 100 µM
- MIC80 [7]: 100 µM (≈ 21.1 µg/mL)
- MIC80 [8]: > 100 µM
- MIC80 [9]: 100 µM (≈ 21.1 µg/mL)
- MIC80 [10]: > 100 µM
- CC50 [11]: > 2500 µM
- A549 SI [12]: >20
- CC50 [13]: 900 µM
- HepG2 SI [14]: 7
- RBC SI (Red blood cells): >20

Structure (SMILES): Cc1nc(-c2c[nH]c3ccccc23)cs1 [Fragment 9]
- MIC50 [1]: 126 µM (≈ 27 µg/mL)
- MIC50 [2]: 39 µM (≈ 8.36 µg/mL)
- MIC50 [3]: > 500 µM
- MIC50 (M. avium 11): > 500 µM
- MIC80 [4]: > 100 µM
- MIC80 [5]: > 100 µM
- MIC80 [6]: > 100 µM
- MIC80 [7]: > 100 µM
- MIC80 [8]: > 100 µM
- MIC80 [9]: > 100 µM
- MIC80 [10]: > 100 µM
- CC50 [11]: > 2500 µM
- A549 SI [12]: >20
- CC50 [13]: 500 µM
- HepG2 SI [14]: 4
- RBC SI (Red blood cells): >18

Structure (SMILES): Cc1cc2nc(CN)[nH]c2cc1C [Fragment 10]
- MIC50 [1]: 131 µM (≈ 23 µg/mL)
- MIC50 [2]: 53 µM (≈ 9.29 µg/mL)
- MIC50 [3]: > 500 µM
- MIC50 (M. avium 11): > 500 µM
- MIC80 [4]: > 100 µM
- MIC80 [5]: > 100 µM
- MIC80 [6]: > 100 µM
- MIC80 [7]: > 100 µM
- MIC80 [8]: > 100 µM
- MIC80 [9]: > 100 µM
- MIC80 [10]: > 100 µM
- CC50 [11]: 1900 µM
- A549 SI [12]: 15
- CC50 [13]: 900 µM
- HepG2 SI [14]: 7
- RBC HC50 (Red blood cells): 2100
- RBC SI (Red blood cells): 16
